Measured values: patent US11091510B2, “Crystal characteristics, preparation processes and anticancer applications of 17beta-neriifolin crystal forms” (EnKang Pharmaceuticals (Guangzhou), Ltd., priority 2017, dated 2021)

Test system: Human gastric cancer cells MGC-803
Experiment: In vivo efficacy test of 17bNF Crystal Form 0 and Form II, MGC-803 xenograft in nude mice
Conditions: oral, once a day, six times every week until the 15th day; start at average tumor volume 1450 mm^3; FIG. 42A-C
Description: Human gastric cancer cells MGC-803 were subcutaneously planted into the armpit of nude mice. The test drugs 17bNF-0 and 17bNF-II were separately administrated orally when the average tumor volume reached 1450 mm^3. Drugs were given once a day, six times every week until the 15th day. CMC (drug-carrier; 0.5%) was used as the blank control. Tumor volumes were measured once about every three days (FIG. 42A), and the nude mice were photographed on the 22th day (FIG. 42B), and the nude mice were sacrificed on the 22th day. The tumors were dissected out from the nude mice and photographed (FIG. 42C).

COC1C(O)[C@H](O[C@H]2CC[C@@]3(C)[C@H](CC[C@@H]4[C@@H]3CC[C@]3(C)[C@@H](C5=CC(=O)OC5)CC[C@]43O)C2)OC(C)[C@@H]1O (stereo partly drawn) [17bNF-0, (3β, 5β)-3-[(6-deoxy-3-O-methyl-α-L-glucopyranosyl)oxy]-14-hydroxycard-20(22)-enolide]
anticancer activities in nude mice (tumor volume): very high anticancer activities
